Source: patent US10588879B2, “Treatment of age-related macular degeneration” (Aurin Biotech Inc., priority 2011, dated 2020)
pIC50: −log10 of the molar value. Read-outs that look alike come from different tables or passages of the source.

Experiments:
[1] = test system: classical complement pathway; assay: CH50 assay, human serum, sensitized sheep red blood cell hemolysis; format: cell-based; details: sensitized sheep red blood cells, 1 hour at 37° C., read-out: IC50, inhibition of human complement-mediated red blood cell hemolysis
Experimental: To evaluate the strength of blockade of the classical complement pathway by the low molecular weight products of the aurin tricarboxylic acid complex, (i.e. ATA plus AQA plus AHA), the standard CH50 assay was employed. Sheep red blood cells were sensitized by incubation overnight with rabbit anti sheep red blood cell antibody. Then dilutions of serum, with and without various amounts of the low molecular weight aurin tricarboxylic acid fraction (ATAC), were incubated with the sensitized red blood cells for 1 hour at 37° C. The incubates were centrifuged at 5,000 rpm for 10 min. The hemoglobin released into the serum from red blood cells that had been destroyed by complement attack, was determined by reading the optical density (OD) at 405 nm. As a positive control, red blood cells were 100% lysed with water, and as a negative control, no serum was added to the incubate.

[2] = molecular target: T1, membrane attack complex (addition of C9 to C5b678) (Homo sapiens, UniProt P02748); assay: Western blot variation of CH50 assay: stage of complement blockade; format: biochemical; details: human serum diluted 16 fold, pre-treated 30 min; blots with antibodies to C6, C7, C8, C9
T1 construct: from tissue; host or cells: normal human serum (with antibody-sensitized sheep red blood cells)
Experimental: Normal human serum was pre-treated with aliquots of aqueous solutions of ATA, AQA, AHA and ATAC prior to adding sheep red blood cells sensitized to human complement. The reaction mixtures were incubated at 37° C. for 1 h. Aliquots were loaded on 10% polyacrylamide gels and subjected to SDS-PAGE. Proteins were transferred to membranes and developed with appropriate primary antibodies to complement proteins (Table 1): FIG. 4A: Western blots of membranes developed with antibodies to C1q, C3, C4 and C5. Lane 1, untreated serum; lane 2, serum with red blood cells added; lane 3 serum with red blood cells protected with ATAC. Notice that in untreated serum, bands for C1q, C3, C4, and C5 were readily detected. In lanes 2 and 3, the activated products C3d, C4d, and C5a were detected indicating opsonization had taken place. […] It can be seen that C5b-9 is […] detected upon probing with C6, C7, C8 and C9, thus establishing that the ATAC block was at the C9 stage. […]
To determine at which stage of assembly of the membrane attack complex was being blocked, additional analyses were carried. […] The C6 antibody detected C5b6, C5b67, and C5b678. The C7 antibody detected C5b67 and C5b678, while the C8 antibody detected C5b678. […]

T1 sequence (P02748 22-559, one chain of several): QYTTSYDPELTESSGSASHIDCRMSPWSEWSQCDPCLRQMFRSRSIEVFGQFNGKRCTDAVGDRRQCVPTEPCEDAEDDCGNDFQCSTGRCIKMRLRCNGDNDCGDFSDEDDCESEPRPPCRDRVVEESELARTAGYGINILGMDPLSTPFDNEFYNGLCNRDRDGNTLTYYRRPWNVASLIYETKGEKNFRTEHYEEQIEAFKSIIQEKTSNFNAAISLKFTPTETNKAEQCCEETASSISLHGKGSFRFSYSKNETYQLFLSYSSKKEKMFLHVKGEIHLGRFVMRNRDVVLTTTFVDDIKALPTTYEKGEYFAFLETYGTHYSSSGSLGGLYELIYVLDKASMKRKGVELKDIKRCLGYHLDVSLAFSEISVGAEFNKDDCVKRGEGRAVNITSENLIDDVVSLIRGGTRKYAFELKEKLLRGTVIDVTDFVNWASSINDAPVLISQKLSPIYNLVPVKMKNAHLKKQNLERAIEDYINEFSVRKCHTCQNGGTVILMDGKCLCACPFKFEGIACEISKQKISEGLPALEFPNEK

Row | Compound | pIC50 [1] | stage at which membrane attack complex formation is arrested [2] | pIC50 ([1]; Erythrocyte)
1 | 5,5′-((3-carboxy-5-((3-carboxy-4-oxocyclohexa-2,5-dien-1-ylidene)methyl)-4-hydroxybenzyl)-4-hydroxyphenyl)methylene)bis(2-hydroxybenzoic acid) [AHA] | 6.25 | becomes arrested at the C8 stage | 
2 | O=C(O)C1=CC(=Cc2cc(C(c3ccc(O)c(C(=O)O)c3)c3ccc(O)c(C(=O)O)c3)cc(C(=O)O)c2O)C=CC1=O [AQA] | 6.24 | becomes arrested at the C8 stage | 
3 | O=C(O)C1=CC(=C(c2ccc(O)c(C(=O)O)c2)c2ccc(O)c(C(=O)O)c2)C=CC1=O [ATA, 5,5′-((3-carboxy-4-oxocyclohexa-2,5-dienn-1-ylidene)methylene)bis(2-hydroxybenzoic acid)] |  |  | 6.26
